Results from patent US6521407B1, “Methods for determining chemosensitivity of cancer cells based upon expression of negative and positive signal transduction factors” (TheRyte Limited, priority 1998, dated 2003).

How the values were obtained:
Format in all cases: cell-based, human
[1] = system: HRT18; experiment: Clonogenic cell survival assay (D0.1), HRT18; conditions: HRT18, p53 wild-type, detectable p21; for Absolute D0.1: dose reducing clonogenic survival to 10% of control, 14 days exposure
Method: (§1) The growth characteristics clonogenic assay procedures of the 11 human in vitro cell lines used in this analysis have already been reported e.g. in Britten R. A. and Warenius H., Eur. J. Canc. 29A, 1315-1320 (1993). The cell lines are listed, with their histological classification in Table 4. All are well established; many having been growing in vitro for several years. Cell lines were either donations or purchased by our laboratories. On receipt all were grown for 5 passages to provide sufficient cells for batch storage in liquid nitrogen. During this period contamination was excluded by at least one passage in antibiotic free medium and mycoplasma testing was carried out on all lines. For clonogenic assays, cells were taken from a designated primary liquid nitrogen batch and grown for 3-6 passages until there were sufficient well-growing cells. Further batches from these cells were frozen in liquid nitrogen. Cells were routinely maintained in DMEM medium. All lines were supplemented with 10% heat-inactivated foetal calf serum (HIFCS). […] The D0.1 values were obtained by several independent clonogenic assays and the data fitted by linear regression analysis. The clonogenic assays were repeated until statistically satisfactory fits were achieved on linear regression. The D0.1 values were obtained by interpolation of the linear regression lines. The cytotoxic drug D0.1 values have been normalised and expressed as relative D0.1 values, to enable the relative sensitivity of each cell to each of the drugs to be compared.
(§2) In order to assay CDDP sensitivity 10^2-10^5 cells were plated in 3 ml of Ham's F12 medium supplemented with 10% FCS in 6 well plates and incubated at 37° C. in an atmosphere of 5% CO2 for 8 hours. […] The medium was then removed, the cells were fixed in 70% ethanol and stained with 10% Giemsa and colonies of >100 cells counted. […] CDDP cell survival was determined at the 10% clonogenic cell survival level (D0.1) by interpolation of the fitted regression curve. […]

[2] = system: I407; experiment: Clonogenic cell survival assay (D0.1), I407; conditions: 1407 (I407), p53 wild-type, detectable p21; for Absolute D0.1: dose reducing clonogenic survival to 10% of control, 14 days exposure
Method: as §1, §2

[3] = system: OAW42; experiment: Clonogenic cell survival assay (D0.1), OAW42; conditions: OAW42, p53 wild-type, detectable p21
Method: (§3) The growth characteristics clonogenic assay procedures of the 11 human in vitro cell lines used in this analysis have already been reported e.g. in Britten R. A. and Warenius H., Eur. J. Canc. 29A, 1315-1320 (1993). The cell lines are listed, with their histological classification in Table 4. All are well established; many having been growing in vitro for several years. Cell lines were either donations or purchased by our laboratories. On receipt all were grown for 5 passages to provide sufficient cells for batch storage in liquid nitrogen. During this period contamination was excluded by at least one passage in antibiotic free medium and mycoplasma testing was carried out on all lines. For clonogenic assays, cells were taken from a designated primary liquid nitrogen batch and grown for 3-6 passages until there were sufficient well-growing cells. Further batches from these cells were frozen in liquid nitrogen. Cells were routinely maintained in DMEM medium. All lines were supplemented with 10% heat-inactivated foetal calf serum (HIFCS). […]
(§4) In order to assay CDDP sensitivity 10^2-10^5 cells were plated in 3 ml of Ham's F12 medium supplemented with 10% FCS in 6 well plates and incubated at 37° C. in an atmosphere of 5% CO2 for 8 hours. […] The medium was then removed, the cells were fixed in 70% ethanol and stained with 10% Giemsa and colonies of >100 cells counted.

[4] = system: HT29; experiment: Clonogenic cell survival assay (D0.1), HT29; conditions: HT29, p53 mutant, undetectable p21; for Absolute D0.1: dose reducing clonogenic survival to 10% of control, 14 days exposure
Method: as §1, §2

[5] = system: A431; experiment: Clonogenic cell survival assay (D0.1), A431; conditions: A431, p53 mutant, undetectable p21; for Absolute D0.1: dose reducing clonogenic survival to 10% of control, 14 days exposure
Method: as §1, §2

[6] = system: MGHU1; experiment: Clonogenic cell survival assay (D0.1), MGHU1; conditions: MGHU1, p53 wild-type, detectable p21; for Absolute D0.1: dose reducing clonogenic survival to 10% of control, 14 days exposure
Method: as §1, §2

[7] = system: 2780; experiment: Clonogenic cell survival assay (D0.1), 2780; conditions: 2780, p53 wild-type, detectable p21; for Absolute D0.1: dose reducing clonogenic survival to 10% of control, 14 days exposure
Method: as §1, §2

[8] = system: MOR; experiment: Clonogenic cell survival assay (D0.1), MOR; conditions: p53 mutant
Method: as §3, §4

[9] = system: CORL23; experiment: Clonogenic cell survival assay (D0.1), CORL23; conditions: CORL23, p53 wild-type, detectable p21; for Absolute D0.1: dose reducing clonogenic survival to 10% of control, 14 days exposure
Method: as §1, §2

[10] = system: RT112; experiment: Clonogenic cell survival assay (D0.1), RT112; conditions: RT112, p53 mutant, undetectable p21; for Absolute D0.1: dose reducing clonogenic survival to 10% of control, 14 days exposure
Method: as §1, §2

[11] = system: MEL2; experiment: Clonogenic cell survival assay (D0.1), MEL2; conditions: MEL2, p53 mutant, undetectable p21; for Absolute D0.1: dose reducing clonogenic survival to 10% of control, 14 days exposure
Method: as §1, §2

[12] = absolute D0.1 divided by mean D0.1 of the drug

SMILES | Absolute D0.1 [1] | Absolute D0.1 [2] | Absolute D0.1 [4] | Absolute D0.1 [5] | Absolute D0.1 [6] | Absolute D0.1 [7] | Absolute D0.1 [9] | Absolute D0.1 [10] | Absolute D0.1 [11] | also measured
N.N.[Cl][Pt][Cl] [CDDP, cis-diamminedichloroplatinum] | 0.864 | 0.06 | 0.632 | 0.306 | 0.4494 | 0.255 | 0.338 | 0.237 | 0.457 | Relative D0.1 [1, 12]: 2.16; Relative D0.1 [2, 12]: 0.15; Relative D0.1 [3, 12]: 0.27; Absolute D0.1 ([3]; dose reducing clonogenic survival to 10% of control, 14 days exposure): 0.108; Relative D0.1 [4, 12]: 1.58; Relative D0.1 [5, 12]: 0.765; Relative D0.1 [6, 12]: 1.235; Relative D0.1 [7, 12]: 0.637; Relative D0.1 ([8]; undetectable p21, absolute D0.1 divided by mean D0.1 of the drug): 1.573; Absolute D0.1 ([8]; undetectable p21, dose reducing clonogenic survival to 10% of control, 14 days exposure): 0.629; Relative D0.1 [9, 12]: 0.845; Relative D0.1 [10, 12]: 0.593; Relative D0.1 [11, 12]: 1.143
CC(=O)O[C@H]1C(=O)[C@@]2(C)[C@H]([C@H](OC(=O)c3ccccc3)[C@]3(O)C[C@H](OC(=O)[C@H](O)[C@@H](NC(=O)c4ccccc4)c4ccccc4)C(C)=C1C3(C)C)[C@]1(OC(C)=O)CO[C@@H]1C[C@@H]2O [Paclitaxel (TAXOL), Paclitaxel] | 10.415 | 1.504 | 1.106 | 0.823 | 1.144 | 2.113 | 0.497 | 1.523 | 0.57 | 
